Tests used:
[1] = target: T1, COX-1 (Homo sapiens, UniProt P23219); assay: Assay for the COX-1 inhibitory activity using U-937 (PGE2 inhibition); assay type: cell-based; details: for inhibition at 1 µM: 1 μM test compound, U-937 human lymphoma cells, PGE2 inhibition vs DMSO, read-out: Cyclooxygenase (COX) Inhibition (%) COX-1 (1 μM); for COX-1 inhibitory activity in comparison with the reference (Valdecoxib): 1 μM, U-937, comparison in words
T1 construct: host or cells: U-937 human lymphoma cells
T1 sequence (P23219 24-599): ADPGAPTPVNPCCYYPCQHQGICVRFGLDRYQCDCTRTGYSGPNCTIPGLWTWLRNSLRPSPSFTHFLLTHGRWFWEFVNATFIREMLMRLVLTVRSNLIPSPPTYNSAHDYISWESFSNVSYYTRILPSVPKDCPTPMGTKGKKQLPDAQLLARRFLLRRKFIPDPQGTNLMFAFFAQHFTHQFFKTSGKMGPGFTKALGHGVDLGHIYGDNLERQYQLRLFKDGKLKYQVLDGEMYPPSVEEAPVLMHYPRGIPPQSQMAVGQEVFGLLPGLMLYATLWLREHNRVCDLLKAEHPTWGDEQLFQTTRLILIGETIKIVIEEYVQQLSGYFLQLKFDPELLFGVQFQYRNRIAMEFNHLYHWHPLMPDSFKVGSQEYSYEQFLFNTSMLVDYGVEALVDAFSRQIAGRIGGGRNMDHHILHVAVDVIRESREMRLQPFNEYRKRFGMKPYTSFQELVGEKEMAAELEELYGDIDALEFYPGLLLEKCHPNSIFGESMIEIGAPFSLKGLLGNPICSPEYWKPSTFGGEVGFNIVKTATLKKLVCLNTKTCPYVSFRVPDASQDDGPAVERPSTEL
Method: The collected cells were diluted with HBSS (×1, Hank's balanced salt solution) to a concentration of 1×10^6 cells/ml. 1 ml of the dilute cell solution was placed into each well of 12-well plates. 5 μl of 1 μM solution of a test compound in DMSO and 5 μl of DMSO as a control were added to the wells. The wells were incubated in CO2 incubator at 37° C. for 15 minutes. Separately, 10 mM stock solution of arachidonic acid in ethanol was diluted ten times in ethanol to prepare 1 mM solution of arachidonic acid. Arachidonic acid acts as a substrate. 10 μl of the 1 mM solution of arachidonic acid was added to each well and incubated at CO2 incubator at 37° C. for 30 minutes. The cell solution of each well was placed in a centrifuge test tube and centrifuged at 10,000 rpm at 4° C. for 5 minutes. The concentration of PGE2 in the collected cells and the supernatant was quantified by means of a monoclonal kit (Cayman Chemicals). The percentages of PGE2 inhibition in a group of the test compound-treated cells in relation to a group of the DMSO-treated cells were calculated. Based on the calculated values, the COX-1 inhibitory activities were evaluated.
(§1) The percentages of the COX inhibition were calculated according to the following equation: % Inhibition=(concentration of PGE2 in test compound-untreated sample−concentration of PGE2 in test compound-treated sample)/(concentration of PGE2 in test compound-untreated sample)×100

[2] = target: T2, COX-2 (Mus musculus, UniProt Q05769); assay: Assay for the COX-2 inhibitory activity using RAW 264.7 cell line (PGE2, interferon γ/LPS induced); assay type: cell-based; details: for COX-2 inhibitory activity in comparison with the reference (Valdecoxib): 10 nM, RAW 264.7, comparison in words; for inhibition at 0.01 µM: RAW264.7, 10 nM test compound, RAW 264.7 cells, interferon γ + LPS, 18 hours, PGE2, read-out: Cyclooxygenase (COX) Inhibition (%) COX-2 (10 nM); for selectivity (COX-2 over COX-1): judged from Table 1, in words
T2 construct: host or cells: RAW 264.7 cells, aspirin-pretreated, then induced with interferon gamma and LPS
T2 sequence (Q05769 18-604): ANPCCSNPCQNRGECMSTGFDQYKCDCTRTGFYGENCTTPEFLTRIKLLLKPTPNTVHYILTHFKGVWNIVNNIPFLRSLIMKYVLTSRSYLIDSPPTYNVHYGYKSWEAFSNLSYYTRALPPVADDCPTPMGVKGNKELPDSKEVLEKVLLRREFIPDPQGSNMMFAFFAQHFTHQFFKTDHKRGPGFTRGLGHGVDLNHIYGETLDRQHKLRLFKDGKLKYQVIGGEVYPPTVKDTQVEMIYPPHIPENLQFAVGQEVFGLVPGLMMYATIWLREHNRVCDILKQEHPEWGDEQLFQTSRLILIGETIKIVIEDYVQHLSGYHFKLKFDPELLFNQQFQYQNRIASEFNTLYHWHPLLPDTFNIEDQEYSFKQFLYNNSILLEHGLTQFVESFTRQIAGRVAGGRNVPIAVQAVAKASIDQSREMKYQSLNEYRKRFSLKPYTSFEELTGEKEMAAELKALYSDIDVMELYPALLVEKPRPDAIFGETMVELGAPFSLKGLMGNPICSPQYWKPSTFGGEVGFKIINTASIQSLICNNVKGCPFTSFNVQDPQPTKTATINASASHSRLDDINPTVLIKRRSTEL
Method: Each well was treated with 250 μM of aspirin and incubated at 37° C. for 2 hours. […] Then, each well was treated with interferon γ (100 units/ml) and Iipopolysaccharide (LPS, 100 ng/ml) and incubated for 18 hours. The culture media were transferred to another test tubes. The concentration of PGE2 was quantified by means of the EIA kit (Cayman Chemicals).
as §1

[3] = tested on: carrageenan-induced paw edema; assay: Carrageenan-induced paw edema test in rats; assay type: in vivo; details: for Inhibitory effect (% inhibition): oral administration, foot swelling 3 hours after carrageenan injection vs control; for COX inhibitory effect (paw edema % inhibition) in comparison with Celecoxib: oral, comparison in words
Method: 2. Carrageenan-induced Paw Edema Test in Rats
The day before the test date, rats were selected in each group so that the average body weight was as close as possible, and the rats were fasted by feed withdrawal prior to the test. At the test date, the rats were orally administered with the test compounds and a control material. After 1 hour, the volume (V0h) of a predetermined portion of the left hind foot of the rats was measured with a plethysmometer. 100 μl of 1% carrageenan solution was subcutaneously injected to the left hind foot of the rats using a syringe with 1 ml capacity. Three hours after the injection of the carrageenan, the volume (V3h) of the predetermined portion of the foot was again measured. The foot swelling variation […] in a group of test compound-treated rats was compared with that of a group of control material-treated rats. With the supposition of 0% inhibition by the control (control material-treated rats), the inhibition percentage of edema of each test compound was determined.

Row | SMILES | inhibition at 1 µM [1] [%] | COX-1 inhibitory activity in comparison with the reference (Valdecoxib) [1] | COX-2 inhibitory activity in comparison with the reference (Valdecoxib) [2] | inhibition at 0.01 µM [2] [%] | selectivity (COX-2 over COX-1) [2] | Inhibitory effect (% inhibition) [3] [% inhibition] | COX inhibitory effect (paw edema % inhibition) in comparison with Celecoxib [3]
1 | CS(=O)(=O)c1ccc(-n2nc(C(F)(F)F)nc2-c2ccc(Br)cc2)nc1 [Example 45, 2-[5-(4-bromophenyl)-3-trifluoromethyl-[1,2,4]triazol-1-yl]-5-methanesulfonyl pyridine] | 14.6 | the same as or lower | remarkably enhanced | 33.6 | excellent selectivities | 21.6 | 
2 | CCOc1ccc(-c2nc(C(F)(F)F)nn2-c2ccc(S(C)(=O)=O)cc2)cc1 [Example 35, 5-(4-ethoxyphenyl)-1-(4-methanesulfonylphenyl)-3-trifluoromethyl-1H-[1,2,4]triazole] | 11.8 | the same as or lower | remarkably enhanced | 38.6 | excellent selectivities | 32.3 | remarkably improved
3 | COc1ccc(/C=C/c2nc(C(F)(F)F)nn2-c2ccc(S(C)(=O)=O)cc2)cc1 [Example 34, 5-[2-(4-methoxyphenyl)vinyl]-1-(4-methanesulfonylphenyl)-3-trifluoromethyl-1H-[1,2,4]triazole] | 23.5 |  |  | 26.8 |  | 19.3 | 
4 | CS(=O)(=O)c1ccc(-n2nc(C(F)(F)F)nc2-c2ccc(Br)cc2)cc1 [Example 27, 5-(4-bromophenyl)-1-(4-methanesulfonylphenyl)-3-trifluoromethyl-1H-[1,2,4]triazole] | 13.8 |  |  | 16 |  | 21.7 | 
5 | COc1ccc(-c2nc(C(F)(F)F)nn2-c2ccc(S(C)(=O)=O)cc2)cc1 [Example 28, 1-(4-methanesulfonylphenyl)-5-(4-methoxyphenyl)-3-trifluoromethyl-1H-[1,2,4]triazole] | 10.1 | the same as or lower | remarkably enhanced | 28.6 | excellent selectivities | 23.3 | 
6 | NS(=O)(=O)c1ccc(-n2nc(C(F)(F)F)nc2-c2ccc(Br)cc2)cc1 [Example 44, 4-[5-(4-bromophenyl)-3-trifluoromethyl-[1,2,4]triazol-1-yl]benzene sulfonamide] | 23.1 | the same as or lower | remarkably enhanced | 29.9 | excellent selectivities | 28.8 | remarkably improved
7 | COc1ccc(-c2nc(C(F)(F)F)nn2-c2ccc(S(N)(=O)=O)cc2)cc1 [Example 43, 4-[5-(4-methoxyphenyl)-3-trifluoromethyl-[1,2,4]triazol-1-yl]benzene suffonamide] | 34.6 |  |  | 32.3 |  | 39.1 | remarkably improved

Reference: US7019144B2, “1,2,4-Triazole derivative, method for preparing the same, and pharmaceutical composition containing the same” (CJ Corp., priority 2002, dated 2006)
